# Where two headings read alike, the source gives them in different places.
# T1: rVGAT (RUNC-47, rat unc-47 homologue) (Rattus norvegicus, UniProt O35458)
# T1 construct: expressed in transfected cells
# T1 sequence (O35458 1-525): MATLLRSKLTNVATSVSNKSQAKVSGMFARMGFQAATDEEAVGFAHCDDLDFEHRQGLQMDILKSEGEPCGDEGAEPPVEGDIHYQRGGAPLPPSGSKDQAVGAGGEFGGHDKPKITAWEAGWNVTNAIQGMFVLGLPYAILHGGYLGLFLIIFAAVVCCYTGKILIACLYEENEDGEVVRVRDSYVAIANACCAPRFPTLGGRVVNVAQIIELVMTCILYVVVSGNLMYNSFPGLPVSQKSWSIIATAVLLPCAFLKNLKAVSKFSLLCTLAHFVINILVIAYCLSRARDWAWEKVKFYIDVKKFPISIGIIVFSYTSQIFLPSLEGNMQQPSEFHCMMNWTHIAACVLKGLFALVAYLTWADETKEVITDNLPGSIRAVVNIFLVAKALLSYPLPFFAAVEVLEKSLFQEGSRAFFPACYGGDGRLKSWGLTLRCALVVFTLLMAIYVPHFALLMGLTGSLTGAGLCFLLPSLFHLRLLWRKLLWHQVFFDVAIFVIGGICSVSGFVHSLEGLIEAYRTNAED
# T2: vesicular monoamine transporter 1 (VMAT1) (Rattus norvegicus, UniProt Q01818)
# T2 construct: transport of serotonin by endogenous VMAT1; endogenous in cells; host or cells: PC12 cells (clone B1 stably expressing rVGAT), light membrane vesicles
# T2 sequence (Q01818 1-521): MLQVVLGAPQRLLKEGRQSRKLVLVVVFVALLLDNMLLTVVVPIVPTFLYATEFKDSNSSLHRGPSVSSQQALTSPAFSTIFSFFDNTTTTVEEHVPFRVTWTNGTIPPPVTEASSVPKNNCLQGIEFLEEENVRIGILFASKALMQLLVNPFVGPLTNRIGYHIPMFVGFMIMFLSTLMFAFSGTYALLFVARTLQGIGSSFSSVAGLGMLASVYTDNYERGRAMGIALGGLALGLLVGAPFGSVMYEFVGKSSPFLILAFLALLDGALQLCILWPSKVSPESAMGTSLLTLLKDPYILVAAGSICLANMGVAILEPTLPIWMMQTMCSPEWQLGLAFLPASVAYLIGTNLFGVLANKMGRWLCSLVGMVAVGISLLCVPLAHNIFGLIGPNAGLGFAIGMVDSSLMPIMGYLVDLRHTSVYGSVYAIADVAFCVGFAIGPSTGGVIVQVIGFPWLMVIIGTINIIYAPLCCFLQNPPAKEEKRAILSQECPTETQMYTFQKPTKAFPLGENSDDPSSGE
# Tests used:
# [1] = target: T1, rVGAT (RUNC-47, rat unc-47 homologue); test: 3H-GABA transport assay in vesicles from PC12 cells stably expressing rVGAT (RUNC-47); format: biochemical
# Protocol: Stable PC12 transformants expressing high levels of the putative transport protein were isolated by screening cell clones with fluorescent-tagged antibodies generated against the rat unc-47 homologue RUNC-47. […] A population of light vesicles was then isolated from two stable transformants and purified by differential centrifugation (Example 7).
# Hereafter, the terms RUNC-47 and rVGAT are used interchangeably.
# These studies were carried out in the transport assay detailed in Example 8, using synaptic vesicles prepared from transfected PC-12 cells, as described above and detailed in Example 7.
# Briefly, vesicles were prepared from PC12 cell clone B1 stably expressing rVGAT and from un-transfected cells.
# The rat unc-47 homologue cDNA subcloned into the plasmid expression vector pcDNA3-Amp (InVitrogen; Carlsbad, Calif.) was introduced into PC12 cells by electroporation (Grote, et al., Cell 81, 581-589, 1995). […] The nuclear debris was sedimented at 100 g for 5 minutes and heavier membranes were eliminated by centrifugation at 27,000 g for 1 hour The remaining light membrane vesicles were sedimented at 65,000 g for 1 hour and resuspended in SH containing the same protease inhibitors at a final concentration of approximately 10 μg protein/μl.
# Incubation was performed at 29° C. for varying intervals and the reaction was terminated by rapid filtration (Supor 200, Gelman; AnnArbor, Mich.), followed by immediate washing with 6 ml cold 0.15 M KCl. Background uptake was determined by incubation at 4° C. for 0 minutes. The bound radioactivity was measured by scintillation counting in 2.5 ml Cytoscint (ICN). […] Nigericin and valinomycin were dissolved in ethanol and added to final concentrations of 5 μM and 20 μM respectively. Transport measurements were performed in duplicate and repeated three or more times using at least two different membrane preparations.
# [2] = target: RUNC-47 (rVGAT) (Rattus norvegicus, UniProt O35458)
# [3] = target: T2, vesicular monoamine transporter 1 (VMAT1); test: Serotonin transport by endogenous VMAT1 in the same PC12 cell membrane preparations; format: biochemical
# From the text: Since nigericin inhibits VMAT1 activity on these vesicles to a greater extent (approximately 65%) than it inhibits rVGAT activity, vesicular transport of serotonin has a greater dependence on ΔpH. […] Thus, rVGAT and VMAT1 depend on both components of the electrochemical gradient but VMAT1 depends to a greater extent on ΔpH, consistent with previous results using mixed populations of synaptic vesicles.
# [4] = substrate: NCCCC(=O)O; test: cells, lysate or membranes named; conditions: other: transfected PC12 cell vesicles; uptake measured at 30 seconds; pH 7.4; 29.0 °C
molecule,measurement,setting,value
"NCCCC(=O)O [GABA, gamma-aminobutyric acid]",IC50,[1],4.75 mM
C=CC(N)CCC(=O)O (stereo not drawn) [gamma-vinyl-GABA],IC50,[1],7.5 mM
same,"Inhibition of rVGAT activity (3H-GABA transport), in words",[1],as potently as unlabelled GABA
N[C@@H](CCC(=O)O)C(=O)O [glutamate],"Inhibition of rVGAT activity (3H-GABA transport), in words",[1],does not inhibit rVGAT activity even at extremely high concentrations
same,IC50,"[1]; read-out: Inhibition of GABA Transport by Structurally Related Compounds, IC50, vesicles from rVGAT-transfected PC12 cells, about 40 μM GABA including radiolabeled GABA",> 100 mM
NCC(=O)O [glycine],IC50,[1],27.5 mM
same,"Inhibition of rVGAT activity (3H-GABA transport), in words",[1],relatively low potency
same,Uptake of 3H-glycine by RUNC-47 PC-12 vesicle preparations,[2],no significant uptake
CCCC(=O)O [n-butyric acid],IC50,[1],43.5 mM
same,"Inhibition of rVGAT activity (3H-GABA transport), in words","[1]; vesicles from rVGAT-transfected PC12 cells, about 40 μM GABA",inhibits both rVGAT activity and GABA transport into brain synaptic vesicles
CO[C@@H]1C[C@@H](C[C@H]2CC[C@H](C)[C@H]([C@@H](C)C(=O)O)O2)O[C@]2(O[C@](C)([C@H]3CC[C@@](C)([C@@H]4O[C@@H]([C@H]5O[C@@](O)(CO)[C@H](C)C[C@@H]5C)C[C@@H]4C)O3)C[C@H]2C)[C@@H]1C [nigericin],Inhibition of serotonin transport by endogenous VMAT1,"[3]; nigericin, membranes from transfected PC12 cells that express VGAT",approximately 65%
same,Inhibition of GABA transport in rVGAT transfected cells,"[1]; nigericin 5 FM, PC12 clone B1 membranes",approximately 40%
CC(C)[C@@H]1NC(=O)[C@H](C)OC(=O)[C@@H](C(C)C)NC(=O)[C@@H](C(C)C)OC(=O)[C@H](C(C)C)NC(=O)[C@H](C)OC(=O)[C@@H](C(C)C)NC(=O)[C@@H](C(C)C)OC(=O)[C@H](C(C)C)NC(=O)[C@H](C)OC(=O)[C@@H](C(C)C)NC(=O)[C@@H](C(C)C)OC1=O [valinomycin],Effect on residual VMAT1 activity of adding valinomycin to nigericin,"[3]; valinomycin added to nigericin, same PC12 membranes",eliminates the residual VMAT1 activity
same,Effect on rVGAT activity of adding valinomycin to nigericin,"[1]; valinomycin 20 FM added to nigericin 5 FM, PC12 clone B1 membranes",eliminates rVGAT activity
"rVGAT (RUNC-47, rat unc-47 homologue) (Rattus norvegicus) (protein) MATLLRSKLTNVATSVSNKSQAKVSGMFARMGFQAATDEEAVGFAHCDDLDFEHRQGLQMDILKSEGEPCGDEGAEPPVEGDIHYQRGGAPLPPSGSKDQAVGAGGEFGGHDKPKITAWEAGWNVTNAIQGMFVLGLPYAILHGGYLGLFLIIFAAVVCCYTGKILIACLYEENEDGEVVRVRDSYVAIANACCAPRFPTLGGRVVNVAQIIELVMTCILYVVVSGNLMYNSFPGLPVSQKSWSIIATAVLLPCAFLKNLKAVSKFSLLCTLAHFVINILVIAYCLSRARDWAWEKVKFYIDVKKFPISIGIIVFSYTSQIFLPSLEGNMQQPSEFHCMMNWTHIAACVLKGLFALVAYLTWADETKEVITDNLPGSIRAVVNIFLVAKALLSYPLPFFAAVEVLEKSLFQEGSRAFFPACYGGDGRLKSWGLTLRCALVVFTLLMAIYVPHFALLMGLTGSLTGAGLCFLLPSLFHLRLLWRKLLWHQVFFDVAIFVIGGICSVSGFVHSLEGLIEAYRTNAED",Km,[4],5 mM

# Source: patent publication US6660846B1, “Vesicular amino acid transporter composition and method” (The Regents of the University of CA, priority 1997, dated 2003)
